“Also recorded” adds a separate entry of the source.
What was measured:
C. elegans dauer larvae = experiment: Dispersal assay; format: in vivo; settings: physiological concentration; 0.25% E. coli added; food-only control approximately 35%
Protocol: C. elegans dauer juveniles were washed with MILLI-Q water 3 times, placed into 6 cm petri dishes with a small amount of water, and rested overnight. Approximately 200-300 nematodes in 10 μl of water were placed on an agar plate, to which 2 μl of treatment was added. The liquid culture that produced 60% dauer animals was centrifuged, filtered with a 0.45 μm filter, and used as a positive control for dispersal. Thereafter, media were lyophilized and resuspended in MILLI-Q water 5 times. 2 μl to 10 μl of nematode suspension was used for the assay. As a negative control, 0.5% E. coli (HB101) was prepared in S-complete, lyophilized, and adjusted to the final volume of 0.25% E. coli in the assay.
Nematodes were quantified using Image J software (Image Processing and Analysis in Java, National Institutes of Health). The number of nematodes visualized and counted using Image J is illustrated in FIG. 63B. Nematodes inside the circle were subtracted manually from the total number of worms counted because of the location of their placement. Each treatment was replicated 9-11 times. The graph was normalized to the positive control, the dauer conditioned medium.
A synthetic blend of these ascarosides was then tested for dispersal activity, using the dauer conditioned medium as a positive control. The media was estimated to contain approximately half of the original 0.5% E. coli (HB101) food source. […]

C. elegans males = experiment: Attraction assay (long-range, point source); format: in vivo; settings: 10 cm plate
Protocol: 10 cm standard chemotaxis plates were prepared (Bargmann et al., Cell 74:515-27 (1993), which is hereby incorporated by reference in its entirety) and stored at 4° C. until the day before use. Standard 1 cm-diameter copper pipes were sectioned into 1 cm-tall segments to use for the holding chambers. The females/hermaphrodites were isolated overnight, washed 3 times in M9 buffer, and then allowed to wander on a plate pre-conditioned with 50 uL of 1000× treptomycin for 2 hours to kill any bacteria that might produce a false positive attractant. The nematodes were then washed 3 times, and the supernatant from the last wash was placed in a copper chamber, as the control, 1 cm from the border of the 10 cm plate. The nematodes were suspended in M9 within the copper chamber, 1 cm from the border opposite the control chamber. After 6 hours, they were subsequently removed and replaced with 3 μL of 1M sodium azide. 100 C. elegans adult males were isolated overnight, washed several times in ddH2O, and placed at the center of the agar plate. After several hours, males paralyzed within 2 cm of each region were scored. The Chemotaxis Index (Bargmann et al., Cell 74:515-27 (1993), which is hereby incorporated by reference in its entirety) was then used to score male chemotaxis to either point source.

C. elegans [1] = experiment: Ascaroside function (Table 12); format: in vivo, Caenorhabditis elegans; design: key to Attract Females/Herm. / Promote Dauer Formation / Attract Males: A very strong result of affecting nematode behavior is designated in the table as “strong.”; settings: listed = has this function
Protocol: (§1) Various ascarosides and ascaroside blends were administered to various nematodes described below (Table 12). […] A very strong result of affecting nematode behavior is designated in the table as “strong.”

S. feltiae = experiment: Ascaroside function (Table 12); format: in vivo, Steinernema feltiae; settings: listed = has this function
Protocol: as §1

C. elegans [2] = settings: cited from earlier work
C. elegans [3] = settings: in vivo; cited from earlier work
[4] = tested on: Several of the tested nematode species; experiment: Retention assay; format: in vivo; settings: 1 nM, 1 μM and 1 mM tested
Protocol: (§2) OP50 E. coli was grown on a standard 5 cm agar plate (made with standard Nematode Growth Medium). The bacterial lawn was 16 mm in diameter and was grown overnight at 20° C. before being used in trials. Two 4 mm spots (0.6 μL) were placed on opposite sides of the bacterial lawn (using a transparent template to guide spot placement), and several minutes elapsed for the liquid to settle in before placing nematodes down on the assay. Recording began immediately upon worm placement. 0.6 μL of the control was placed on one side of the lawn, and 0.6 μL of the experimental cue was placed on the other side of the lawn, changing the location of the cue throughout trials between left/right and top/bottom to avoid bias.
(§3) Nematodes were isolated by gender at the L4 stage the day before being used in trials as developed adults. Worms were evenly divided and placed at two points equidistant from the foci of the scoring region. Trials were recorded for 20 minutes, and frames were collected for analysis at 1 frame per second. Results were averaged from at least three different trials. For every nematode species in this study, a different total number of worms (using water in both scoring regions) was tested to determine the minimum number of worms necessary for consistent unbiased results over a 20 minute trial. The total number of worms used in the multiple species assays depended on that species' optimal parameters. 10 worms were used for P. redivivus males and females, 20 worms were used for C. elegans males and O. dolichuridae males, and 14 worms were used for S. glaseri males. The Automated Software was used to compare worm occupancy in each scoring region over time, and the Chemotaxis Index (Bargmann et al., Cell 74:515-27 (1993), which is hereby incorporated by reference in its entirety) was adapted to score preference or avoidance to each ascaroside.
(§4) A video camera attached to the microscope produced a digital video stream, which was then analyzed. The ratio of the time the average worm spent in each region of interest was calculated for every trial. For ease of implementation, all worms in a single experiment were assumed to be roughly the same size. Thus worm pixels were counted instead of whole worms, allowing fractions of a worm in the region of interest to be taken into account. It also eliminated the need for a shape-based worm identification algorithm, and allowed each frame to be analyzed independently. A band-pass filter was applied to each frame to eliminate the effect of uneven lighting and also accentuate the worms against the background. The worm was then identified after thresholding the filtered image. Throughout each experiment, the locations and sizes of the regions of interest were known. Through the filtering described above, it is known which pixels are occupied by worms and which ones are not. Thus, the ratio of worm-pixels to all pixels inside the region of interest can be calculated to produce the worm-occupancy ratio. This calculation was done for every frame, giving a plot output of worm-occupancy ratio vs. time for each region.

Panagrellus redivivus = experiment: Ascaroside function (Table 12); format: in vivo; settings: listed = has this function
Protocol: as §1

S. glaseri = experiment: Ascaroside function (Table 12); format: in vivo; settings: listed = has this function
Protocol: as §1

C. elegans [5] = experiment: Spot attraction assay; format: in vivo
Protocol: The spot attraction assays were conducted according to a previously reported method (Pungaliya et al., PNAS 106:7708-13 (2009); Srinivasan et al., Nature 454:1115-18 (2008), which are hereby incorporated by reference in their entirety). For both C. elegans hermaphrodites and males, 50-60 worms were harvested daily at the fourth larval stage (L4) and stored segregatedly by sex at 20° C. overnight, to be used as young adults the following day. For the competition experiments, two conditions were used: 120 nM ascr#3 and 10 nM icas#3 (Condition 1), or 12 μM ascr#3 and 1 μM icas#3 (Condition 2) in water containing 10% ethanol. Aliquots were stored at −20° C. in 20 μL tubes. 10% ethanol in water was used as control.
Attraction assays with hbas#3 were conducted as previously reported (Srinivasan et al., Nature 454:1115-18 (2008); Pungaliya et al., Proc. Natl. Acad. Sci. U.S.A. 106:7708-13 (2009), which are hereby incorporated by reference in their entirety). For the attraction assays, 50-60 hermaphrodite worms were harvested daily at the early fourth larval stage (L4) and stored at 20° C. overnight to be used as young adults the following day. Hbas#3 was dissolved in water containing 10% ethanol. Aliquots were stored at −20° C. in 20 μL tubes. 10% ethanol in water was used as control.

C. elegans [6] = experiment: Aggregation assay; format: in vivo
Protocol: Aggregation behavior of worms was measured using assays reported in de Bono & Bargmann, Cell 94:679-89 (1998), which is hereby incorporated by reference in its entirety. Aggregation assays were conducted on standard NGM plates. Plates containing indole ascarosides were made by adding the indole ascaroside stock solution to the NGM media before they were poured onto the plates. These plates were dried at room temperature for 2 to 3 days. Control plates were treated similarly, except that ethanol solutions instead of icas solutions were added to the plates, corresponding to the amount of ethanol introduced via the icas solutions. Final ethanol concentrations of the plates were below 0.1% for all conditions. After drying, both control plates and plates containing indole ascarosides were seeded with 150 μl of an overnight culture of E. coli OP50 using a micropipette, and were allowed to dry for 2 days at room temperature. For “low worm density” experiments, 20 worms were placed onto the lawn and left at 20° C. for 3 hours. For “high worm density” experiments, approximately 120 worms were placed onto the bacterial lawn and left at 20° C. for 3 hours. Aggregation behavior was quantified as the number of animals that were in touch with two or more animals at greater than 50% of their body length.

[7] = tested on: P. redivivus males and females; experiment: Retention assay; format: in vivo
Protocol: as §2, §3, §4

SMILES: CC(=O)CCC[C@@H](C)O[C@@H]1O[C@@H](C)[C@H](O)C[C@H]1O [ascr#2]
- dispersing nematodes, normalized to the percent of the positive control response (C. elegans dauer larvae): 40%
- amount as low as which elicited C. elegans male attraction (C. elegans males): 500 attomol
- male attraction from a distance (C. elegans males): chemotax towards
- Attract Males (C. elegans [1]): ascr#2
- Dispersal (of dauer larvae, infectious juveniles) (C. elegans [1]): ascr#2
- Promote Dauer Formation (C. elegans [1]): ascr#2 ([strong])
- Dispersal (of dauer larvae, infectious juveniles) (S. feltiae): ascr#2
- most active amount for attraction (C. elegans [2]; from 1 μM concentration): ~1 pmol
- dauer-inducing activity (C. elegans [3]): individually promote dauer entry

SMILES: C[C@H](CC/C=C/C(=O)Nc1ccc(C(=O)O)cc1)O[C@@H]1O[C@@H](C)[C@H](O)C[C@H]1O [ascr#8]
- dispersing nematodes, normalized to the percent of the positive control response (C. elegans dauer larvae): 50%
- preference for ascaroside-conditioned areas [4]: preferred areas conditioned
- male attraction from a distance (C. elegans males): not active
- Attract Males (C. elegans [1]): ascr#8
- Dispersal (of dauer larvae, infectious juveniles) (C. elegans [1]): ascr#8
- Promote Dauer Formation (C. elegans [1]): ascr#8 ([strong])
- Attract Females/Herm. (Panagrellus redivivus): ascr#8
- Attract Males (Panagrellus redivivus): ascr#8
- Attract Males (S. glaseri): ascr#8
- Dispersal (of dauer larvae, infectious juveniles) (S. feltiae): ascr#8
- male attraction (C. elegans [2]; in vivo): major component of the male-attracting signal
- dauer-inducing activity (C. elegans [3]): individually promote dauer entry

SMILES: C[C@H](CCC(=O)O)O[C@@H]1O[C@@H](C)[C@H](OC(=O)c2c[nH]c3ccccc23)C[C@H]1O [icas#9]
- attraction in spot attraction assay (C. elegans [5]; 1 pmol (high concentrations), N2 hermaphrodites and him-5 males): attractive to both C. elegans sexes; also recorded: attracted both males and hermaphrodites
- attraction of hermaphrodites (C. elegans [5]; low concentrations, N2 hermaphrodites): strongly attracted
- attraction of males (C. elegans [5]; low concentrations, males): males are not attracted
- aggregation of solitary and social hermaphrodites (C. elegans [6]; constant background concentration): increased aggregation; also recorded: strongly increased the propensity
- concentration window for hermaphrodite attraction and aggregation (C. elegans [6]; in vivo): femtomolar to picomolar
- response of P. redivivus males [7]: no response
- Attract Females/Herm. (C. elegans [1]): icas#9 ([strong])
- Attract Males (C. elegans [1]): ([strong])
- Promote Dauer Formation (C. elegans [1]): icas#9
- Repel Females/Herm. (Panagrellus redivivus): icas#9
- Dispersal (of dauer larvae, infectious juveniles) (S. feltiae): icas#9
- aggregation (C. elegans [2]; in vivo): aggregating stimulant
- dauer-inducing activity (C. elegans [3]): moderate dauer-inducing activity; also recorded: individually promote dauer entry
